For series [1], the target named is T1, BVDV (NADL) RNA-dependent RNA polymerase (RdRp) (Bovine viral diarrhea virus, UniProt P19711).
T1 construct: BVDV (NADL) RNA-dependent RNA polymerase (RdRp) was expressed and purified; made in house
As to the kind of experiment: RNA-dependent RNA polymerase assay, poly(C) template. Type of series: biochemical. Conditions: purified RdRp, read-out: 50% inhibitory concentration for the BVDV polymerase activity. Here is the method: BVDV (NADL) RNA-dependent RNA polymerase (RdRp) was expressed and purified, as described before. […] In brief, the purified BVDV polymerase (100 nM) was mixed with 100 µM GTP (containing 8.3 µM of [^3H]GTP, Perkin Elmer) and increasing concentration of the inhibitor (0.2 µM, 0.7 µM, 2 µM, 6 µM, 19 µM, 56 µM, 165 µM or 500 µM) in 50 mM Hepes pH 8.0, 10 mM KCl, 10 mM DTT, 1 mM MgCl2, 2mM MnCl2, and 0.5% igepal (Sigma). The enzyme mix and inhibitors were pre-incubated, in order to favor enzyme-inhibitor interactions before RNA binding. Reactions were started by the addition of 100 nM of poly(C) (about 500 nt in size) template. Reactions were incubated at 30 °C and stopped by addition of 50 mM EDTA. Samples were transferred onto DE-81 filters, washed with 0.3 M ammonium formate solution, and dried. Radioactivity bound to the filter was determined by liquid scintillation counting.

Series [2] addresses T1, BVDV (NADL) RNA-dependent RNA polymerase (RdRp). The following applies: reference compounds; cited from earlier work.
A short description of series [3]: Cytotoxicity assay, proliferation of exponentially growing MDBK cells (MTS/PMS). Type of series: cell-based, bovine. Conditions: bovine. Here is the method: (§1) Assays were carried out, as described previously.
Another series deals with BVDV NADL virus. Nature of the series: CPE-based antiviral assay, BVDV NADL in MDBK cells (MTS/PMS). Conditions: for S.I.: selectivity index, CC50 vs EC50.
For a further series, the system named is MDBK cells. Nature of the series: Cytotoxicity assay, proliferation of exponentially growing MDBK cells (MTS/PMS). It counts as cell-based, bovine. Conditions: 5 days. Here is the method:
as §1

The mark [4] stands for this setting: Bovine viral diarrhea virus isolates and strains, MDBK, 72 h.
[5] abbreviates: sheet CSFCII#, potency relative to TO502-2403 (EC50 0.2 µM).
The mark [6] stands for this setting: sheet CSFCI#, potency relative to TO505-6180 (EC50 0.07 µM).
Where [7] appears, read: protection against BVDV (NADL, wild type)-induced CPE in MDBK cells, 3 days.

T1 sequence (P19711 3270-3988): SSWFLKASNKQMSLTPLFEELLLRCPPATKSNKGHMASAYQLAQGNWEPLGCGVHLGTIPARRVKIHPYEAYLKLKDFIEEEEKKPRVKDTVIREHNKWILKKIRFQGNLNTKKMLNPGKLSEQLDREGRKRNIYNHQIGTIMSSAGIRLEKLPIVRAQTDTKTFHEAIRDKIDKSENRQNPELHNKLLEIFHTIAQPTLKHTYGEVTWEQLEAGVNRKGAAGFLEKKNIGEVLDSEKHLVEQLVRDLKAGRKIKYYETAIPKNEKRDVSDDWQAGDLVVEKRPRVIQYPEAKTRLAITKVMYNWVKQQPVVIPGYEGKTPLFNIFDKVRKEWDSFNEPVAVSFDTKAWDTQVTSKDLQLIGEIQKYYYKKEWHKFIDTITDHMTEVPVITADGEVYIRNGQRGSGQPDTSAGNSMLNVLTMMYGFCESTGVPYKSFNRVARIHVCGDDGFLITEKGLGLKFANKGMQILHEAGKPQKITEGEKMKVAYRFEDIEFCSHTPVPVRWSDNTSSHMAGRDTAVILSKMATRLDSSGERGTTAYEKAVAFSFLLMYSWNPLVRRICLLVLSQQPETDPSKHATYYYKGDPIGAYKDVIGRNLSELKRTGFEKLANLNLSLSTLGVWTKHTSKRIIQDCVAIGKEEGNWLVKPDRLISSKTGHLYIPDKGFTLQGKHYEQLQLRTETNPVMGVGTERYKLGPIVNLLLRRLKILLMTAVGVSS

Take `Nc1nc2c(ncn2[C@@H]2O[C@H](COP(=O)(O)OP(=O)(O)OP(=O)(O)O)C[C@H]2O)c(=O)[nH]1` [3′-dGTP, 3′-deoxyguanosine-5’-triphosphate, reference compound]: the IC50 in series [1] was under 1 µM.
Regarding `CCOC(=O)c1cc2ccn3c(c-2n1)N=C(C)C3` [AG110, ethyl 2-methylimidazo[1,2-a]pyrrolo[2,3-c]pyridin-8-carboxylate], the “inhibitory effect on the highly purified BVDV RdRp” value (shortened to “inhibitory effect”) in series [2] was “none of these compounds had any inhibitory effect”.
For the molecule `Brc1ccc(Cn2ccc3nc(-c4ccccc4)nc-3c2)cc1` [BPIP, 5-[(4-bromophenyl)methyl]-2-phenyl-5H-imidazo[4,5-c]pyridine], the “inhibitory effect” value in series [2] was “none of these compounds had any inhibitory effect”.
For `O=C(Nc1ccn(-c2ccc(F)cc2)n1)c1cc(-c2cccnc2)nc2ccccc12` [CSFC-129, Fc1ccc(cc1)n2ccc(n2)NC(=O)c4cc(nc3ccccc34)c5cccnc5], in series [3], it took 68 µM to reach half-maximal cytotoxicity (CC50 at 5 days). In addition, in the series with BVDV NADL virus (setting [4]), the EC50 (in general, the concentration that produces a half-maximal response) was 1.4 µM. The S.I. with BVDV NADL virus is on record as 49. Besides, the fold increase in the series with BVDV NADL virus (setting [5]) is reported as 0.14.
As for `Cc1cccc(-n2ccc(NC(=O)c3cc(-c4cccnc4)nc4ccccc34)n2)c1` [CSFC-130, Cc1cccc(c1)n2ccc(n2)NC(=O)c4cc(nc3ccccc34)c5cccnc5], in series [3], the midpoint of cytotoxicity, the CC50 at 5 days, lay at 5 µM. Further, the EC50 in the series on BVDV NADL virus (setting [4]) was 0.02 µM. Moreover, the fold increase in the series on BVDV NADL virus (setting [5]) is on record as 10.00.
As for `O=C(Nc1ccn(-c2ccccc2Cl)n1)c1cc(-c2ccccc2)nc2ccccc12` [CSFC-131, Clc1ccccc1n2ccc(n2)NC(=O)c4cc(nc3ccccc34)c5ccccc5], in series [3], the CC50 (in general, the concentration at which the toxic effect on the cells reaches its halfway point) at 5 days was over 100 µM. This molecule also gave an EC50 with BVDV NADL virus (setting [4]) of 0.1 µM. In the series on BVDV NADL virus, this molecule returned a S.I. of 1000. Further, the fold increase with BVDV NADL virus (setting [5]) is reported as 2.00.
With `O=C(Nc1ccn(-c2cccc(Cl)c2)n1)c1cc(-c2ccccc2)nc2ccccc12` [CSFC-132, Clc1cccc(c1)n2ccc(n2)NC(=O)c4cc(nc3ccccc34)c5ccccc5], in series [3], the CC50 at 5 days is over 100 µM. In the series on BVDV NADL virus (setting [4]), this molecule came in with an EC50 of 0.02 µM. Moreover, in the series with BVDV NADL virus (setting [5]), the fold increase was found to be 10.00.
On the same counts, the results for `Cc1cccc(-n2ccc(NC(=O)c3cc(-c4ccccc4)nc4ccccc34)n2)c1` [CSFC-133, Cc1cccc(c1)n2ccc(n2)NC(=O)c4cc(nc3ccccc34)c5ccccc5] are over 100 µM, 0.02 µM and 10.00.
With `O=C(Nc1ccccc1)c1cc(-c2ccccc2)nc2ccccc12` [CSFC-134, O=C(Nc1ccccc1)c1cc(nc2ccccc12)c1ccccc1], the CC50 at 5 days in series [3] was over 100 µM. The same molecule gave an EC50 in the series with BVDV NADL virus (setting [4]) of over 100 µM. The molecule also showed a S.I. in the series on BVDV NADL virus of 1. Moreover, the fold increase in the series on BVDV NADL virus (setting [6]) is reported as 0.0007.
On to `O=C(Nc1ccccc1O)c1cc(-c2ccccc2)nc2ccccc12` [CSFC-137, Oc1ccccc1NC(=O)c1cc(nc2ccccc12)c1ccccc1], for which, in series [3], the CC50 at 5 days is over 100 µM. In addition, in the series on BVDV NADL virus (setting [4]), the EC50 was over 100 µM. Further, the S.I. in the series on BVDV NADL virus is 1. The fold increase in the series with BVDV NADL virus (setting [6]) was 0.0007.
The molecule `COc1cccc(NC(=O)c2cc(-c3ccccc3)nc3ccccc23)c1` [CSFC-138, COc1cccc(c1)NC(=O)c1cc(nc2ccccc12)c1ccccc1] yielded a half-maximal cytotoxic concentration (CC50) at 5 days in series [3] of over 100 µM. In the series on BVDV NADL virus (setting [4]), this molecule had an EC50 of over 100 µM. The molecule further registered a S.I. in the series on BVDV NADL virus of 1. In the series with BVDV NADL virus (setting [6]), the fold increase was 0.0007.
`COc1ccc(NC(=O)c2cc(-c3ccccc3)nc3ccccc23)cc1` [CSFC-139, COc1ccc(cc1)NC(=O)c1cc(nc2ccccc12)c1ccccc1] returned a cytotoxic concentration (CC50) at 5 days in series [3] of over 100 µM. This molecule showed an EC50 with BVDV NADL virus (setting [4]) of over 100 µM. The molecule also registered a S.I. in the series with BVDV NADL virus of 1. Also, the fold increase in the series on BVDV NADL virus (setting [6]) turned out to be 0.0007.
For `Cc1ccc(-n2ccc(NC(=O)c3cc(-c4cccnc4)nc4ccccc34)n2)cc1` [CSFC-140, Cc1ccc(cc1)n2ccc(n2)NC(=O)c4cc(nc3ccccc34)c5cccnc5], in series [3], the CC50 at 5 days amounted to 16 µM. For the same molecule, the EC50 with BVDV NADL virus (setting [4]) came out at 0.02 µM. For the same molecule, in the series with BVDV NADL virus (setting [5]), the fold increase amounted to 10.00.
In the case of `Cc1ccc(-n2ccc(NC(=O)c3cc(-c4ccccc4)nc4ccccc34)n2)cc1` [CSFC-141, Cc1ccc(cc1)n2ccc(n2)NC(=O)c4cc(nc3ccccc34)c5ccccc5], the CC50 at 5 days in series [3] was over 100 µM. The same molecule displayed an EC50 in the series on BVDV NADL virus (setting [4]) of 0.6 µM. This molecule showed a S.I. in the series with BVDV NADL virus of 167. The fold increase in the series on BVDV NADL virus (setting [5]) came out at 0.33.
On the same counts, the results for `Cc1ccccc1-n1ccc(NC(=O)c2cc(-c3ccccc3)nc3ccccc23)n1` [CSFC-142, Cc1ccccc1n2ccc(n2)NC(=O)c4cc(nc3ccccc34)c5ccccc5] are 23 µM, 2.3 µM, 10 and 0.09.
`O=C(Nc1ccn(-c2ccccc2)n1)c1cc(-c2cccc3ccccc23)nc2ccccc12` [CSFC-143, O=C(c2cc(nc1ccccc12)c4cccc3ccccc34)Nc5ccn(n5)c6ccccc6] came in with a CC50 at 5 days in series [3] of over 100 µM. In addition, the EC50 in the series on BVDV NADL virus (setting [4]) turned out to be 0.1 µM. Besides, the S.I. in the series on BVDV NADL virus was found to be 1000. In the series with BVDV NADL virus (setting [5]), the fold increase is on record as 2.00.
In series [3], `O=C(Nc1ccn(-c2cc(F)cc(F)c2)n1)c1cc(-c2ccccc2)nc2ccccc12` [CSFC-144, Fc1cc(F)cc(c1)n2ccc(n2)NC(=O)c4cc(nc3ccccc34)c5ccccc5] returned a CC50 at 5 days of over 100 µM. In the series with BVDV NADL virus (setting [4]), this molecule yielded an EC50 of 0.02 µM. The fold increase in the series on BVDV NADL virus (setting [5]) is 10.00.
With `Cc1ccc2sc(NC(=O)c3cc(-c4ccccc4)nc4ccccc34)nc2c1C` [CSFC-145, Cc1c(C)ccc2sc(nc12)NC(=O)c1cc(nc2ccccc21)c1ccccc1], in series [3], the CC50 at 5 days is over 100 µM. For the same molecule, the EC50 in the series on BVDV NADL virus (setting [4]) is under 0.02 µM.
Take `O=C(Nc1ccn(-c2ccccc2)n1)c1cc(-c2ccc3ccccc3c2)nc2ccccc12` [CSFC-146, O=C(c2cc(nc1ccccc12)c3cc4ccccc4cc3)Nc5ccn(n5)c6ccccc6]: in series [3], the CC50 at 5 days is over 100 µM. The same molecule yielded an EC50 in the series with BVDV NADL virus (setting [4]) of 0.03 µM. The S.I. in the series with BVDV NADL virus is listed as 3333. For the same molecule, the fold increase in the series on BVDV NADL virus (setting [5]) is 6.67.
Molecule `O=C(Nc1nc2c(F)cc(Br)cc2s1)c1cc(-c2ccccc2)nc2ccccc12` [CSFC-147, Fc1cc(Br)cc2sc(nc12)NC(=O)c1cc(nc2ccccc21)c1ccccc1] showed a CC50 at 5 days in series [3] of 6.2 ± 1.1 µM. In the series on BVDV NADL virus (setting [4]), a half-maximal response (EC50) required 0.01 µM. Besides, the fold increase with BVDV NADL virus (setting [6]) was determined as 7.00.
`O=C(Nc1nc2c(C(F)(F)F)cccc2s1)c1cc(-c2ccccc2)nc2ccccc12` [CSFC-148, FC(F)(F)c1cccc2sc(nc12)NC(=O)c1cc(nc2ccccc21)c1ccccc1]: in series [3], the CC50 at 5 days turned out to be 20 ± 1.6 µM. The same molecule displayed an EC50 with BVDV NADL virus (setting [4]) of 0.3 µM. The S.I. in the series on BVDV NADL virus stood at 67. The fold increase in the series with BVDV NADL virus (setting [6]) was determined as 0.23.
For `Cc1cc(C)c2sc(NC(=O)c3cc(-c4ccccc4)nc4ccccc34)nc2c1` [CSFC-149, Cc1cc2nc(NC(=O)c3cc(nc4ccccc43)c3ccccc3)sc2c(C)c1] the same measures were over 100 µM, 0.2 µM, 500 and 0.35.
In turn, `O=C(Nc1nc2c(F)cccc2s1)c1cc(-c2ccccc2)nc2ccccc12` [CSFC-150, Fc1cccc2sc(nc12)NC(=O)c1cc(nc2ccccc21)c1ccccc1] came in with a CC50 at 5 days in series [3] of 8 ± 1 µM. The molecule further had an EC50 in the series with BVDV NADL virus (setting [4]) of 0.1 µM. Besides, in the series with BVDV NADL virus, the S.I. was 80. The fold increase in the series on BVDV NADL virus (setting [6]) is listed as 0.70.
`Nc1nc2c(cnn2CCCc2ccc3c(c2)OCO3)c2nc(-c3ccco3)nn12` [LZ37, 7-[3-(1,3-benzodioxol-5-yl)propyl]-2-(2-furyl)-7H-pyrazolo[4,3-e][1,2, 4]triazolo[1,5-c]pyrimidin-5-amine]: the “inhibitory effect” value in series [2] is listed as “none of these compounds had any inhibitory effect”.
As for “Cc1cc(nn1)NC(=O)c3cc(nc2ccccc23)c4ccccc4 [CSFC-20]”, the CC50 in the series on MDBK cells is over 100 µM. The S.I. with BVDV NADL virus stood at 1. For the same molecule, the fold increase in the series with BVDV NADL virus (setting [5]) is reported as 0.002.
On to “Cc1cccc2sc(nc12)NC(=O)c4cc(nc3ccccc34)c5cccn5 [CSFC-59]”, for which, in the series with MDBK cells, the CC50 was over 100 µM. For the same molecule, the EC50 in the series with BVDV NADL virus (setting [7]) was 54 µM. This molecule also gave a S.I. in the series on BVDV NADL virus of 2. The fold increase with BVDV NADL virus (setting [5]) was determined as 0.0037.
In turn, “O=C(Nc2cc(c1ccccc1)nn2)c4cc(nc3ccc(F)cc34)c5cccs5 [CSFC-124]” gave a CC50 in the series on MDBK cells of over 100 µM. Moreover, in the series with BVDV NADL virus (setting [7]), a half-maximal response (EC50) required 22 µM. Moreover, the S.I. in the series on BVDV NADL virus is 5. Also, in the series on BVDV NADL virus (setting [5]), the fold increase was found to be 0.00909.
